According to publication PMC11204507, “Mechanistic Insights into the Neurotoxicity of 2,5-Dimethoxyphenethylamines (2C) and Corresponding N-(2-methoxybenzyl)phenethylamine (NBOMe) Drugs” (Journal of Xenobiotics, 2024):
Where two headings read alike, the source gives them in different places.

Key:
[1] = tested on: differentiated SH-SY5Y cells; settings: same experimental conditions; cited from earlier work
TK6 cells = tested on: TK6 cells; parameters: method as in PMID 33348640; settings: 1 h, cited from earlier work
[2] = tested on: differentiated SH-SY5Y cells; parameters: method as in PMID 37631071, PMID 25900438; settings: same in vitro model; cited from earlier work
MAO-A and MAO-B = settings: rat model; cited from earlier work
[3] = tested on: differentiated SH-SY5Y cells; parameters: method as in PMID 37631071, PMID 25900438; settings: same in vitro model; cited from earlier work; remark: listed apart in the source
serotonergic B65 cells = tested on: serotonergic B65 cells; parameters: method as in doi:10.1007/s11419-020-00527-w; settings: cited from earlier work
[4] = tested on: dopaminergic CATH.a cells and 5-HT-containing B65 cells; parameters: method as in doi:10.1007/s11419-020-00527-w; settings: 24 h exposure; read-out: EC50, LDH assay; cited from earlier work
[5] = tested on: differentiated SH-SY5Y cells; experiment: Intracellular ROS/RNS levels, DCFH-DA probe; assay type: cell-based, human; settings: positive control, 24 h
Experimental: Reactive species play important roles in cell signaling and immune response. However, when their levels are excessive, they can cause oxidative stress and damage the cells. The intracellular reactive oxygen species (ROS) and reactive nitrogen species (RNS) levels were measured using the cell-permeable DCFH-DA probe. Inside the cells, DCFH-DA is cleaved by cellular esterases originating DCFH, which is oxidized by ROS/RNS, resulting in the fluorescent 2′,7′-dichlorofluorescein (DCF).
Therefore, the SH-SY5Y cells were seeded onto 96-well plates (25,000 cells/cm^2) following the previously described seeding and differentiation protocol. […] Tert-butyl hyoperoxide (t-BHP, 100 µM, 24 h) was used as a positive control.
At the end of the incubation period, the DCF fluorescence was measured at an excitation wavelength of 485 nm and an emission wavelength of […] in a multi-well plate reader (PowerWaveX, BioTek Instruments, Winooski, VT, USA). The detection of ROS/RNS was assessed by the percent of probe oxidation relative to the control cells (0 µM), and a minimum of 4 independent experiments were conducted in triplicate.

COc1cc(CCN)c(OC)cc1Br [2C-B]
drug-induced cytotoxicity upon MAO inhibition [1]: significant increase in the drug-induced cytotoxicity was observed upon MAO inhibition
increase in ROS levels (TK6 cells; 12.5 µM): two-fold
tGSH content [2]: significant decrease in the tGSH content
deamination by MAO-A and MAO-B (MAO-A and MAO-B): both isoenzymes can catalyze the deamination
ROS production [3]: no ROS production

COc1cc(CCN)c(OC)cc1I [2C-I]
increase in ROS levels (TK6 cells; 35 µM): two-fold
mitochondrial production of ROS (serotonergic B65 cells): increase in the mitochondrial production of ROS
deamination by MAO-A and MAO-B (MAO-A and MAO-B): both isoenzymes can catalyze the deamination

COc1cc(CCNCc2ccccc2OC)c(OC)cc1Br [25B-NBOMe]
increase in ROS levels (TK6 cells; 12.5 µM): two-fold
tGSH content [2]: significant decrease in the tGSH content
ROS production [3]: no ROS production

CNC(C)Cc1ccc2c(c1)OCO2 (stereo not drawn) [MDMA, 3,4-methylenedioxymethamphetamine]
EC50 [4]: 1.5 to 3 mM

CN[C@@H](C)Cc1ccccc1 [methamphetamine]
EC50 [4]: 1.5 to 3 mM

CC(C)(C)OO [t-BHP, tert-butyl hydroperoxide]
activity at 100 µM ([5]; Homo sapiens, SH-SY5Y, control 100.0%): 188%
increase of ROS levels ([5]; 100 µM): approximately 90%
